From ChEMBL document CHEMBL5046262, “Fragment-Based Discovery of MRTX1719, a Synthetic Lethal Inhibitor of the PRMT5•MTA Complex for the Treatment of MTAP-Deleted Cancers” (J Med Chem, 2022)

How the values were obtained:
[1] = Efflux ratio of apparent permeability across basolateral to apical side over apical to basolateral side in dog MDCKII-MDR1 cells at 2 uM incubated for 2.5 hrs by LC-MS/MS analysis; assay type: ADME, cell-based, Canis lupus familiaris, MDCK-MDR1; conditions: MDCK-MDR1
[2] = target: T1, Protein arginine N-methyltransferase 5 (Homo sapiens, UniProt O14744)
Homo sapiens [3] = species: Homo sapiens; experiment: Selectivity ratio of IC50 for inhibition of human PRMT5 co-complexed with MEP50 in absence of MTA to IC50 for inhibition of MTA-bound human PRMT5 co-complexed with MEP50
[4] = Apparent permeability across apical to basolateral side in dog MDCKII-MDR1 cells at 2 uM incubated for 2.5 hrs by LC-MS/MS analysis; assay type: ADME, cell-based, Canis lupus familiaris, MDCK-MDR1; conditions: MDCK-MDR1
[5] = target: T1, Protein arginine N-methyltransferase 5; remark: listed apart in the source
PRMT5/MEP50 complex = PRMT5/MEP50 complex (Homo sapiens, UniProt O14744); experiment: Inhibition of streptavidin sensor chip immobilized biotinylated human PRMT5/MEP50 assessed as dissociation constant by SPR analysis; assay type: protein-complex assay
HCT-116 [6] = experiment: Antiproliferative activity against MTAP knockout human HCT-116 cells assessed as reduction in cell viability incubated for 5 days followed by replacement with fresh medium containing compound and measured after 5 days by CTG assay; assay type: functional, cell-based
HCT-116 [7] = experiment: Antiproliferative activity against human HCT-116 cells expressing wild type MTAP assessed as reduction in cell viability incubated for 5 days followed by replacement with fresh medium containing compound and measured after 5 days by CTG assay; assay type: functional, cell-based
[8] = Half life in CD-1 mouse at 3 mg/kg, iv measured upto 24 hrs by LC-MS/MS analysis; assay type: ADME, organism-based; conditions: in vivo
[9] = target: T1, Protein arginine N-methyltransferase 5; experiment: Inhibition of PRMT5 methyltransferase activity in human HCT-116 cells expressing wild type MTAP assessed as inhibition of PRMT5- mediated SDMA modification level incubated for 96 hrs by Western blot analysis; assay type: cell-based
[10] = Intrinsic clearance in human hepatocytes; assay type: ADME, cell-based, Hepatocyte; conditions: read-out: CLH
[11] = Volume of distribution at steady state in CD-1 mouse at 3 mg/kg, iv measured upto 24 hrs by LC-MS/MS analysis; assay type: ADME, organism-based; conditions: in vivo, read-out: Vdss
[12] = Intrinsic clearance in mouse hepatocytes; assay type: ADME, cell-based, Hepatocyte; conditions: read-out: CLH
[13] = Total clearance in CD-1 mouse at 3 mg/kg, iv measured upto 24 hrs by LC-MS/MS analysis; assay type: ADME, organism-based; conditions: in vivo
[14] = Oral bioavailability in CD-1 mouse at 30 mg/kg administered via gavage measured upto 24 hrs by LC-MS/MS analysis; assay type: ADME, organism-based; conditions: in vivo
[15] = target: T1, Protein arginine N-methyltransferase 5; experiment: Inhibition of PRMT5 methyltransferase activity in MTAP knockout human HCT-116 cells assessed as inhibition of PRMT5- mediated SDMA modification level incubated for 96 hrs by Western blot analysis; assay type: cell-based
Homo sapiens [16] = species: Homo sapiens; experiment: Selectivity ratio of IC50 for inhibition of PRMT5 methyltransferase activity in human HCT-116 cells expressing wild type MTAP to IC50 for nhibition of PRMT5 methyltransferase activity in MTAP knockout human HCT-116 cells; assay type: cell-based

T1 sequence (O14744 whole entry): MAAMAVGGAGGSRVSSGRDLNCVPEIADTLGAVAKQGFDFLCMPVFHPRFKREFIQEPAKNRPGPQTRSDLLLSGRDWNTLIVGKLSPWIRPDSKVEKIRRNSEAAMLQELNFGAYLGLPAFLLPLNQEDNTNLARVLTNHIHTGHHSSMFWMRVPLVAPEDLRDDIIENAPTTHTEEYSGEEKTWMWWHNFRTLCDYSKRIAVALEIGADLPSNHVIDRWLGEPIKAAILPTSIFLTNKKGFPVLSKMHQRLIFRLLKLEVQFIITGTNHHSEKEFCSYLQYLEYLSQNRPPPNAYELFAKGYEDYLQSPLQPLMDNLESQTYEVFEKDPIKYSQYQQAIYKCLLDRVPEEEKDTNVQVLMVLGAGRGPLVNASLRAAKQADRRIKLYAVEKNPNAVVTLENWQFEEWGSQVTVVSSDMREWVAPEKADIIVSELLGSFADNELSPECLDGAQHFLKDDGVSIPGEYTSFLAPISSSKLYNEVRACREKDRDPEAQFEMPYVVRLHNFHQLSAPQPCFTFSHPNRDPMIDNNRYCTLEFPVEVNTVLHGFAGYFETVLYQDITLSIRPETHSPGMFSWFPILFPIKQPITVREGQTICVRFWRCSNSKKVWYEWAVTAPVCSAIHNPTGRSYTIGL
Sequence of PRMT5/MEP50 complex (O14744 whole entry): as above
Sequence of PRMT5/MEP50 complex (Q9BQA1 whole entry, further chain): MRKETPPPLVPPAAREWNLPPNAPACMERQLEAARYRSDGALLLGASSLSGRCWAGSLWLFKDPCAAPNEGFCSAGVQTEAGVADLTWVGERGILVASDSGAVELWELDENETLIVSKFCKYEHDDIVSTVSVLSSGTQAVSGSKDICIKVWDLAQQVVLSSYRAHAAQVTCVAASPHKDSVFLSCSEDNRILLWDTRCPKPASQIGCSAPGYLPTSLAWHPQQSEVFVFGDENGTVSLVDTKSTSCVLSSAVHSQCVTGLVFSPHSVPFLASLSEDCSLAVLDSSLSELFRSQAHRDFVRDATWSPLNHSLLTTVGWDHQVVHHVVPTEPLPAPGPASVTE

| SMILES | efflux ratio at 2.5 h, 2 µM [1] | IC50 [2] | Ratio IC50 (Homo sapiens [3]) | Papp A→B at 2.5 h, 2 µM [4] | IC50 [5] | Kd (PRMT5/MEP50 complex) | IC50 (HCT-116 [6]) | IC50 (HCT-116 [7]) | half-life [8] | IC50 [9] | CLint scaled [10] | Vd [11] | CLint scaled [12] | clearance [13] | bioavailability [14] | IC50 [15] | Ratio IC50 (Homo sapiens [16]) |
| --- | --- | --- | --- | --- | --- | --- | --- | --- | --- | --- | --- | --- | --- | --- | --- | --- | --- |
| Cc1c(-c2ccc3c(=O)[nH]nc(CN)c3c2)cnn1C | 0.6 | 1290 nM | 26 | 4.9 ×10⁻⁶ cm/s | 50 nM |  |  |  |  |  |  |  |  |  |  |  |  |
| Cc1ccc(-c2ccc3c(=O)[nH]nc(CN)c3c2)cn1 | 3.5 | 69000 nM | 12 | 4.7 ×10⁻⁶ cm/s | 5800 nM |  |  |  |  |  |  |  |  |  |  |  |  |
| C[S@@+](CC[C@H](N)C(=O)[O-])C[C@H]1O[C@@H](n2cnc3c(N)ncnc32)[C@H](O)[C@@H]1O |  |  |  |  |  | 550 nM |  |  |  |  |  |  |  |  |  |  |  |
| CC(=O)N1CCC(Nc2cc(C(=O)NC[C@H](O)CN3CCc4ccccc4C3)ncn2)CC1 [PEMRAMETOSTAT] |  |  |  |  |  |  | 189 nM | 237 nM |  |  |  |  |  |  |  |  |  |
| Cn1ncc(-c2ccc3c(=O)[nH]nc(CN)c3c2)c1-c1cccc(Cl)c1C#N | 35 |  |  | 0.7 ×10⁻⁶ cm/s | 2000 nM |  | 544 nM | > 10000 nM | 1.3 h | 8810 nM | < 18 mL/min/kg | 6.6 L/kg | 232 mL/min/kg | 121 mL/min/kg | 12% | 62 nM |  |
| NCc1n[nH]c(=O)c2ccc(-c3cnsc3)cc12 | 0.8 | 11600 nM | 16 | 11.1 ×10⁻⁶ cm/s | 710 nM |  |  |  |  |  |  |  |  |  |  |  |  |
| Cn1ncc(-c2ccc3c(=O)[nH]nc(CN)c3c2)c1-c1cc2ccccc2cc1C#N | 31 |  |  | 0.5 ×10⁻⁶ cm/s |  |  | 264 nM | 5090 nM |  |  | < 18 mL/min/kg |  | 212 mL/min/kg |  |  | 118 nM |  |
| Cn1ncc(-c2ccc3c(=O)[nH]nc(CN)c3c2)c1-c1c(F)cccc1C#N | 42 |  |  | 0.3 ×10⁻⁶ cm/s | 4000 nM |  | 761 nM | 7440 nM |  | > 10000 nM | 18 mL/min/kg |  | 171 mL/min/kg |  |  | 322 nM |  |
| Cn1ncc(-c2ccc3c(=O)[nH]nc(CN)c3c2)c1-c1ccccc1C#N | 7 |  |  | 1.6 ×10⁻⁶ cm/s | 4000 nM |  | 5230 nM | > 10000 nM |  | 3170 nM | < 18 mL/min/kg |  | 148 mL/min/kg |  |  | 826 nM | 4 |
| Cn1ncc(-c2ccc3c(=O)[nH]nc(CN)c3c2)c1-c1ccccc1 | 20 |  |  | 1.5 ×10⁻⁶ cm/s | 3000 nM |  | 3650 nM | 4060 nM |  | 9810 nM | 23 mL/min/kg |  | 123 mL/min/kg |  |  | 2470 nM |  |
| NCc1n[nH]c(=O)c2ccc(-c3cccnn3)cc12 | 0.9 | > 100000 nM |  | 1.1 ×10⁻⁶ cm/s | 30100 nM |  |  |  |  |  |  |  |  |  |  |  |  |
| NCc1n[nH]c(=O)c2ccc(-c3cnn(CCO)c3)cc12 | 0.9 | 11200 nM | 16 | 0.9 ×10⁻⁶ cm/s |  |  |  |  |  |  |  |  |  |  |  |  |  |
| Cn1ncc(-c2ccc3c(=O)[nH]nc(CN)c3c2)c1-c1c(Cl)ccc(OC2CC2)c1C#N | 131 |  |  | 0.3 ×10⁻⁶ cm/s |  |  | 91 nM | 1650 nM |  | > 1000 nM | < 18 mL/min/kg |  | 332 mL/min/kg |  |  | 11 nM |  |
| Cc1cc(OC2CC2)c(C#N)c(-c2c(-c3ccc4c(=O)[nH]nc(CN)c4c3)cnn2C)c1 | 62 |  |  | 0.4 ×10⁻⁶ cm/s |  |  | 77 nM | 1290 nM |  |  | 21 mL/min/kg |  | 175 mL/min/kg |  |  | 9 nM |  |
| COc1cccc(-c2c(-c3ccc4c(=O)[nH]nc(CN)c4c3)cnn2C)c1C#N | 20 |  |  | 0.6 ×10⁻⁶ cm/s | 1000 nM |  | 851 nM | > 10000 nM |  | > 10000 nM | < 18 mL/min/kg |  | 137 mL/min/kg |  |  | 62 nM |  |
